Laboratory results taken from patent publication EP0011845A2, “Antiseborrhoeic hair treatment composition” (Henkel Kommanditgesellschaft auf Aktien, priority 1978, dated 1980).

System: Meerschweinchen
Test: Anti-dandruff test: oleic-acid-induced scaling and skin thickening on shaved guinea pig back
Type: in vivo
Details: 5 % test substance with 5 % Ölsäure in 70 % ethanol, topical on the back, 60 min exposure, 4 consecutive days, evaluated on day 7, inhibition vs skin treated with oleic acid only; for Hautdickenmessung Hemmung %: skin fold thickness by Cutimeter nach Götze; for Hautschuppenmessung Hemmung %: visual scaling score on scale 0-4
From the text: Die Prüfung auf Antischuppenwirkung wurde in folgender Weise durchgeführt, wobei B) als mit Natronlauge auf einen pH-Wert von 6 neutralisiertes Produkt zum Einsatz gelangte:
Die Prüfsubstanzen wurden in 5 %iger Konzentration zusammen mit 5 % Ölsäure in 70 %igem Ethanol gelöst und in alternierender Reihenfolge und in rotierendem Schema auf den Rücken junger, geschorener weiblicher Meerschweinchen im Gewicht von 600 ± 50 g aufgetragen. Die Einwirkungszeit der Substanzen wurde dabei auf 60 Minuten begrenzt, da diese Zeit ausreichte, um eine Wirkung zu erzielen. Anschließend wurden die Tiere mit warmem Wasser 30 Sekunden lang abgeduscht. Die Reihenfolge der Tiere bei der Applikation wechselte dabei täglich, um Differenzen in der Einwirkungszeit zwischen dem ersten und letzten Tier der Gruppe auf ein Minimum zu begrenzen. Diese Behandlung geschah an vier aufeinanderfolgenden Tagen, darauf folgte eine Ruhezeit (Entwicklungszeit von drei Tagen). Am siebenten Tag wurde ausgewertet, und zwar a) kutimetrisch auf Hautfaltendicke instrumentell mit dem Cutimeter nach Götze und b) visuell auf Schuppenbildung bzw. Hemmung nach einer 4-Punkte-Skala folgender Definition: • 0 = keine Schuppen • 1 = leichte Schuppen • 2 = kräftige Schuppen • 3 = starke Schuppen mit Rötung • 4 = Krusten mit Aufrichten der Haare.
Die Versuchsgruppen bestanden aus jeweils 6 Tieren. Die Kollektive wurden mathematisch auf Homogenität geprüft und nach Eliminierung signifikant abweichender Tiere wurden Mittelwert und Streuung für jede Substanz berechnet. Diese wurden in Beziehung gesetzt zu den Werten der nur mit 5 % Ölsäure in 70 %igem Ethanol behandelten Haut und daraus die Signifikanz der Hemmwirkung bestimmt. Das Ergebnis der Prüfung ist der nachstehenden Tabelle 1 zu entnehmen.

Structure (SMILES) | Hautdickenmessung Hemmung % [%] | Hautschuppenmessung Hemmung % [%]
CCOC(=O)CCCCCNC(=O)c1cc(OC)c(OC)c(OC)c1 [Wirkstoff A, N-(3,4,5-Trimethoxy-benzoyl)-6-amino-capronsäure-ethylester] | 15 | 100
COc1cc(C(=O)NCCCCCC(=O)O)cc(OC)c1OC [Wirkstoff B, N-(3,4,5-Trimethoxy-benzoyl)-6-amino-carbonsäure] | 10 | 50
